Data as given in patent US5367062A, “Disubstituted and deoxydisubstituted derivatives of α-d-lyxofuranosides having anti-inflammatory and anti-proliferative activity” (Medicarb Inc., priority 1992, dated 1994).
pIC50: −log10 of the molar value. Structures can show the parent of a compound that is named as a salt. Values belong to the compound of their own block, whether it stands above or below them.

What was measured:
mouse spleen cells = assay: Concanavalin A assay (mouse spleen cell mitogen induced blastogenesis); type: cell-based; details: 72 h, estimated, Con-A 1.25 μg/ml, 3 days, MTT
Excerpt: iii Concanavalin A assay (the mouse spleen cell mitogen induced blastogenesis).
(§1) The MLR assay measures the effects of a study compound on the activation and antigen presentation of T-lymphocytes, therefore determining immunomodulatory properties. The mouse spleen cell mitogen-induced blastogenesis and the BUD-8 human fibroblast proliferation assays measure the effects of the compounds of the present invention on cellular proliferation of cells involved in the pathogenesis of autoimmune diseases. These two assays are appropriate as screens to ascertain anti-inflammatory and/or autoimmune diseases.
It is known that the induction and maintenance of most inflammatory diseases are typically due to the unrestricted activity of T-lymphocytes. Therefore, it is advantageous to identify compounds which are modulators of T-lymphocyte activity for eventual use in the regulation of inflammatory diseases, including acquired immune deficiency syndrome, psoriasis, systemic lupus, erythromatosus, and rheumatoid arthritis.
A simple method is used to screen compounds for their ability to modulate T-lymphocyte activity which comprises assessing the capacity of the compounds to alter the activation of murine spleen cells in response to T-lymphocyte mitogen activators, such as Conconavalin-A (Con-A). The method used to measure the effects of the compounds of the present invention on the blastogenic response of spleen cells to the T-lymphocyte mitogen (Con-A) is as follows:
The response of a mouse spleen cells to the T cell mitogen ConA is a classical assay. In this assay, mice were euthanized by cervical dislocation and their spleens removed surgically. A single cell suspension of the spleens was prepared in culture medium (RPMI-1640 with hepes, supplemented with 10% calf serum, 2 mM glutamine, 500 units penicillin/streptomycin, and 4×10^-5 M 2-mercaptoethanol) using a Teflon pestle. The cells were centrifuged at 1500 RPM and the pellets resuspended in ACT (0.15 M Tris, 0.14 M Ammonium chloride, pH 7.2) in order to lyse the red blood cells. After a five minutes incubation in 37° C. waterbath, the cells were washed and resuspended in culture medium. The splenic lymphocytes were counted using an electronic Coulter Counter and diluted to 5.0×10^6 cells/mi.
The test articles were diluted in culture medium to the appropriate concentrations. Aliquots 100 μl were distributed to triplicate wells in a 96-well microtiter plate. 50 μl of lymphocytes (2.5×10^5 cells) were added to each well. Control wells with vehicle and wells with media were also run. Plates were incubated for one hour at 37° C. 50 μl of Con-A (5 μl/ml) were then added to the wells to result in a final concentration of 1.25 μg/ml. After incubation at 37° C. with 5% carbon dioxide for 3 days, proliferation was measured by adding 20 μl of MTT (10 mg/mlin PBS) [3-(4,5-dimethyl-thiazol-2-yl)-2,5-diphenyltetrazoliumbromidel to each well. Plates were incubated for 4 hours at 37° C., after which 180 μl of 10% SDS in PBS were added. After an overnight incubation, the optical density (OD) of each well was read using a Molecular Devices microplate reader at 570-650 nm.
(§2) Duplicate cultures without Con-A were also set up. After 3 days of incubation, supernatants were assayed for lactate dehydrogenase activity to determine the viability of the cells, which is an indication of the toxicity of the test article on the splenic lymphocytes. 0.1 ml of supernatant was mixed with 0.1 ml of the LDH substrate mixture which contains 5.4×10^-2 M L(+) lactate, 6.6×10^-4 M 2-p-iodophenyl-3-p-nitrophenyl tetrazolium chloride, 2.8×10^-4 M phenazine methosulfate, 1.3×10^-3 M AND, and 0.2 M Tris buffer, pH 8.2. Plates were read immediately for 5 minutes at 490 nm using a Molecular Devices microplate reader.
The mean for each test article treated group was determined and compared to the mean of the control group. The percent change from the control was calculated, and the IC50 was estimated. […]

[1] = test system: T cells (BALB/CBYJ responder spleen cells with C57BL/6J stimulator spleen cells); assay: Mixed lymphocyte response (MLR); type: cell-based; details: Mus musculus, T-cell, 120 h; estimated; 5 days incubation; MTT
Excerpt: i Mixed lymphocyte response (MLR).
as §1
The MLR is a classical assay used to measure T cell function by studying the proliferation response of T cells which are activated in vitro by genetically disparate stimulator cells. This is accomplished by co-culturing spleen cells from two different strains of mice. Splenic T cell proliferation occurs as a result of cellular activation signals generated by the ongoing cellular interactions.
In performing MLR assays, BALB/CBYJ mice were euthanized by cervical dislocation and their spleens removed. Single cell suspensions were prepared in culture medium (RPMI-1640 with hepes supplemented with 10% calf serum, 2 mM glutamine, 500 units penicillin/streptomycin and 4×10^-5 M 2-mercaptoethanol) using a Teflon pestle. The cells were centrifuged at 1500 RPM and the pellets resuspended in ACT (0.15 M Tris, 0.14 M ammonium chloride, pH 7.2 ) in order to lyse the red blood cells. After a 5 minutes incubation at 37° C. waterbath, the cells were washed and resuspended in culture medium. The splenic lymphocytes were counted. C57BL/6J spleen cells, which were used as stimulator cells, were prepared in the same way. The stimulator cells were treated with 50 μm/ml of mitomycin C for 20 minutes at 37° C., then washed five times in culture medium. The proliferative response were measured by culturing 5×10^5 responder spleen cells with 5×10^5 stimulator cells in 96-well microtiter plates in the presence or absence of test article or vehicle (DMSO). Syngeneic control cultures using mitomycin C treated normal BALB/C spleen cells as the stimulator cells were also run. All cultures were run in triplicate.
Solutions of compounds of the present invention in DMSO were prepared at a stock concentration of 300 mM. Solutions were made in a culture medium to a concentration of 1, 10, 30, 100, and 300 μM. The vehicle DMSO was used as a negative control.
After incubation for 5 days at 37° C. with 5% carbon dioxide, the amount of cell proliferation was measured by adding 20 μl of MTT (10 mg/ml in PBS) (3-[4,5-dimethylthiazol-2-yl]-2,5-diphenyltetrazolium bromide) to each well. plates were incubated for 4 hours at 37° C., after which 180 μl of supernatant was removed and 180 μl of 10% SDS in PBS was added. After an overnight incubation, the optical density (OD) of each well was read on a Molecular Devices microplate reader at 570-650 nm.
The results were determined by calculating the difference between the means of the allogeneic cultures and the means of the syngeneic cultures for each test compound concentration. Differences of the test article groups were compared to the difference of the control group. The percent change from the control was determined and an IC50 estimated. The criteria used to establish activity levels were:
Sixteen (16) novel compounds were assayed for their ability to modulate a Mixed Lymphocyte Response in vitro. The test compounds were added to MLR cultures to give final concentrations of 1, 10, 30, 100, and 300 μm. The responses observed in the test article treated wells were compared to the control wells. […] Based on the estimated IC50 all the test compounds were strong inhibitors of the MLR.

BUD-8 human fibroblast = assay: BUD-8 human cell line fibroblast proliferation assay; type: cell-based; details: 72 h, estimated, BUD-8 cells, 3 days, MTT
Excerpt: ii BUD-8 human cell line fibroblast proliferation assay.
as §1
The skin cell fibroblast line, BUD-8, was originally derived from the normal skin of a person and can now be obtained from the American Type Culture Collection, Rockville, Md. The concentration of the compounds which were used in this assay were: 1, 10, 30, 100, and 300 μM. The vehicle was used as the negative control. Test compounds were prepared in DMSO at a stock concentration of […]. Appropriate dilutions were made in culture medium.
In this assay BUD-8 cells were collected, counted, and diluted to 2×10^4 cells/ml. 0.1 ml was plated per well to give 2×10^3 cells/well. The compounds of the present invention were diluted in culture medium to the appropriate concentrations. Aliquotes of 100 μl were distributed to triplicate wells. Control wells with vehicle and wells with media were also run. After a three day incubation at 37° C. with 5% carbon dioxide, proliferation was measured by adding 20 μl of MTT (10 mg/ml in PBS) (3-[4,5-dimethyl thiazol-2-yl]-2,5diphenyl-tetrazolium bromide) to each well. Plates were incubated for 4 hours at 37° C., after which 180 μl of 10% SDS in PBS were added. After an overnight incubation, the optical density (OD) of each well was read using a Molecular Devices microplate reader at 570-650 nm.
as §2, with “cultures” for “cultures without Con-A”, “set up to measure viability.” for “set up.”, “dehydrogenase (LDH)” for “dehydrogenase”, “the BUD-8 cells.” for “the splenic lymphocytes.”, “of supernatent” for “of supernatant”, “Tris buffer. PH” for “Tris buffer, pH”
The mean for each test article treated group was determined and compared to the mean of the control group. The percent change from the control was calculated, and the IC50 estimated. The criteria used to establish activity levels were:
Sixteen (16) test articles were assayed for their ability to inhibit fibroblast proliferation. The test article were added to BUD-8 cell cultures to give final concentrations of 1, 10, 30, 100, and 300 μM. The proliferation observed in the test article treated wells were compared to the DMSO control wells.

rheumatoid arthritis = details: cited from earlier work
[2] = test system: various tumor cell lines, derived from seven cancer types; assay: Tumor cell line screens (leukemia, melanoma, lung, colon, renal, ovarian, brain cancer); type: cell-based; details: average over tumor cell lines; read-out: GI (Average GI50) (converted)
Protocol: The compounds of the present invention were also tested against various tumor cell lines, derived from seven cancer types. These include leukemia, melanoma, lung cancer, colon cancer, renal cancer, ovarian cancer, and brain cancer. Most of the compounds have shown significant activity in various screens, particularly against colon cancer and melanoma.

SMILES: CCCCCCCCCOCCCO[C@H]1O[C@H](COCCN2CCCCC2)[C@@H]2OC(C)(C)O[C@H]12 [VI, n-Nonyloxypropyl 2,3-0-(1-methlethylidene)-5-0-N'-ethylpiperidinyl-α-D-lyxofuranoside]
pIC50 (mouse spleen cells): 5.57
pIC50 [1]: 6.30
pIC50 (BUD-8 human fibroblast): < 4.00

SMILES: CN(C)CCCO[C@@H]1[C@H]2OC(C)(C)O[C@H]2O[C@@H]1[C@H](O)CO [Amiprilose. HCl, 1,2-0-isopropylidene-3-0-3'-(N',N'-dimethylaminopropyl)-α-D-glucofuranose]
Anti-inflammatory activity (in words) (rheumatoid arthritis; in vivo): known to have anti-inflammatory activity
Utility in managing the signs and symptoms of rheumatoid arthritis (in words) (rheumatoid arthritis; late Phase III clinical trials): demonstrated utility in managing the signs and symptoms of rheumatoid arthritis

GI50 [2]: 32.4 µM
SMILES: CCCCCCCCCNC[C@H]1O[C@H](OCCCc2ccccc2)[C@H]2OC(C)(C)O[C@H]21 [XXIX, Phenylpropyl 5-deoxy-2,3-0-(1-methylethylidene)-5-aminononyl-α-D-lyxofuranoside]
pIC50 (mouse spleen cells): 5.30
pIC50 [1]: 5.82
pIC50 (BUD-8 human fibroblast): 4.70

GI50 [2]: 5.13 µM
SMILES: CCCCCCCCCOCCCO[C@H]1O[C@H](CN2CCCC2)[C@@H]2OC(C)(C)O[C@H]12 [XVI]
pIC50 (mouse spleen cells): 5.46
pIC50 [1]: > 6.00
pIC50 (BUD-8 human fibroblast): 4.24

GI50 [2]: 95.5 µM
SMILES: CC1(C)O[C@@H]2[C@@H](OCCCc3ccccc3)O[C@H](CN3CCCC3)[C@@H]2O1 [XXV, Phenylpropyl 5-deoxy-2,3-0-(1-methylethylidene)-5-pyrrolidinyl-α-D-lyxofuranoside]
pIC50 (mouse spleen cells): 4.60
pIC50 [1]: 4.92
pIC50 (BUD-8 human fibroblast): 3.70

GI50 [2]: 5.62 µM
SMILES: CCCCCCCCCOCCCO[C@H]1O[C@H](COCCN2CCCC2)[C@@H]2OC(C)(C)O[C@H]12 [V, n-Nonyloxypropyl 2,3-0-(1-methlethylidene)-5-0-N'-ethylpyrrolidinyl-α-D-lyxofuranoside]
pIC50 (mouse spleen cells): 5.54
pIC50 [1]: > 6.00
pIC50 (BUD-8 human fibroblast): 4.55

GI50 [2]: 91.2 µM
SMILES: CN(C)CCCOC[C@H]1O[C@H](OCCCc2ccccc2)[C@H]2OC(C)(C)O[C@H]21 [X]
pIC50 (mouse spleen cells): 4.26
pIC50 [1]: > 6.00
pIC50 (BUD-8 human fibroblast): 3.52

SMILES: CCCCCCCCCOCCCO[C@H]1O[C@H](CNCCCN2CCCC2)[C@@H]2OC(C)(C)O[C@H]12 [XXIV, n-Nonyloxypropyl 5-deoxy-2,3-0-(1-methylethylidene)-5-aminopropylpyrrolidinyl-α-D-lyxofuranoside]
pIC50 (mouse spleen cells): 5.60
pIC50 [1]: 6.07
pIC50 (BUD-8 human fibroblast): 4.80
